From patent US11331369B2, “Endoparasitic depsipeptides” (Zoetis Services LLC, priority 2017, dated 2022)

Tested on: microfilariae of Dirofilaria immitis
Assay: Dirofilaria immitis, Microfilaria (DiMF) In vitro Assay
Format: cell-based
Settings: 72 h, read-out: DiMF Minimum Effective Dose (MED), approximately 72 hours incubation, microfilariae assessed for survival or paralysis

Row | Compound | minimal effective concentration
1 | CC(C)C#Cc1cnn(Cc2ccc(C[C@H]3OC(=O)[C@H](CC(C)C)N(C)C(=O)[C@@H](C)OC(=O)[C@H](CC(C)C)N(C)C(=O)[C@@H](Cc4ccccc4)OC(=O)[C@H](CC(C)C)N(C)C(=O)[C@@H](C)OC(=O)[C@H](CC(C)C)N(C)C3=O)cc2)c1 [Example 2-70, (3S,6R,9S,12R,15S,18R,21S,24R)-6-benzyl-3,9,15,21-tetraisobutyl-4,10,12,16,22,24-hexamethyl-18-(4-((4-(3-methylbut-1-yn-1-yl)-1H-pyrazol-1-yl)methyl)benzyl)-1,7,13,19-tetraoxa-4,10,16,22-tetraazacyclotetracosan-2,5,8,11,14,17,20,23-octaone] | 0.01 to 0.1 µM
2 | CC(C)C[C@H]1C(=O)O[C@H](Cc2ccc(Cn3cc(C#CC(C)(C)C)cn3)cc2)C(=O)N(C)[C@@H](CC(C)C)C(=O)O[C@H](C)C(=O)N(C)[C@@H](CC(C)C)C(=O)O[C@H](Cc2ccccc2)C(=O)N(C)[C@@H](CC(C)C)C(=O)O[C@H](C)C(=O)N1C [Example 2-71, (3S,6R,9S,12R,15S,18R,21S,24R)-6-benzyl-18-(4-((4-(3,3-dimethylbut-1-yn-1-yl)-1H-pyrazol-1-yl)methyl)benzyl)-3,9,15,21-tetraisobutyl-4,10,12,16,22,24-hexamethyl-1,7,13,19-tetraoxa-4,10,16,22-tetraazacyclotetracosan-2,5,8,11,14,17,20,23-octaone] | 0.01 to 0.1 µM
3 | CC(C)C[C@H]1C(=O)O[C@H](Cc2ccc(Cn3ccc(C(C)(C)C)n3)cc2)C(=O)N(C)[C@@H](CC(C)C)C(=O)O[C@H](C)C(=O)N(C)[C@@H](CC(C)C)C(=O)O[C@H](Cc2ccccc2)C(=O)N(C)[C@@H](CC(C)C)C(=O)O[C@H](C)C(=O)N1C [Example 2-72, (3S,6R,9S,12R,15S,18R,21S,24R)-6-benzyl-18-(4-((3-(tert-butyl)-1H-pyrazol-1-yl)methyl)benzyl)-3,9,15,21-tetraisobutyl-4,10,12,16,22,24-hexamethyl-1,7,13,19-tetraoxa-4,10,16,22-tetraazacyclotetracosan-2,5,8,11,14,17,20,23-octaone] | 0.01 to 0.1 µM
4 | CC(C)C[C@H]1C(=O)O[C@H](Cc2ccc(Cn3cc(C#CC4CC4)cn3)cc2)C(=O)N(C)[C@@H](CC(C)C)C(=O)O[C@H](C)C(=O)N(C)[C@@H](CC(C)C)C(=O)O[C@H](Cc2ccccc2)C(=O)N(C)[C@@H](CC(C)C)C(=O)O[C@H](C)C(=O)N1C [Example 2-75, (3S,6R,9S,12R,15S,18R,21S,24R)-6-benzyl-18-(4-((4-(cyclopropylethynyl)-1H-pyrazol-1-yl)methyl)benzyl)-3,9,15,21-tetraisobutyl-4,10,12,16,22,24-hexamethyl-1,7,13,19-tetraoxa-4,10,16,22-tetraazacyclotetracosan-2,5,8,11,14,17,20,23-octaone] | 0.001 to 0.01 µM
5 | Cc1nn(Cc2ccc(C[C@H]3OC(=O)[C@H](CC(C)C)N(C)C(=O)[C@@H](C)OC(=O)[C@H](CC(C)C)N(C)C(=O)[C@@H](Cc4ccccc4)OC(=O)[C@H](CC(C)C)N(C)C(=O)[C@@H](C)OC(=O)[C@H](CC(C)C)N(C)C3=O)cc2)c(C)c1C#N [Example 2-78, 1-(4-(((2R,5S,8R,11S,14R,17S,20R,23S)-14-benzyl-5,11,17,23-tetraisobutyl-4,8,10,16,20,22-hexamethyl-3,6,9,12,15,18,21,24-octaoxo-1,7,13,19-tetraoxa-4,10,16,22-tetraazacyclotetracosan-2-yl)methyl)benzyl)-3,5-dimethyl-1H-pyrazole-4-carbonitrile] | 0.01 to 0.1 µM
6 | Cc1nn(Cc2ccc(C[C@H]3OC(=O)[C@H](CC(C)C)N(C)C(=O)[C@@H](C)OC(=O)[C@H](CC(C)C)N(C)C(=O)[C@@H](Cc4ccccc4)OC(=O)[C@H](CC(C)C)N(C)C(=O)[C@@H](C)OC(=O)[C@H](CC(C)C)N(C)C3=O)cc2)c(C)c1C(F)(F)F [Example 2-81, (3S,6R,9S,12R,15S,18R,21S,24R)-6-benzyl-18-(4-((3,5-dimethyl-4-(trifluoromethyl)-1H-pyrazol-1-yl)methyl)benzyl)-3,9,15,21-tetraisobutyl-4,10,12,16,22,24-hexamethyl-1,7,13,19-tetraoxa-4,10,16,22-tetraazacyclotetracosan-2,5,8,11,14,17,20,23-octaone] | 0.01 to 0.1 µM
7 | CCc1nn(Cc2ccc(C[C@H]3OC(=O)[C@H](CC(C)C)N(C)C(=O)[C@@H](C)OC(=O)[C@H](CC(C)C)N(C)C(=O)[C@@H](Cc4ccccc4)OC(=O)[C@H](CC(C)C)N(C)C(=O)[C@@H](C)OC(=O)[C@H](CC(C)C)N(C)C3=O)cc2)c(CC)c1[N+](=O)[O-] [Example 2-82, (3S,6R,9S,12R,15S,18R,21S,24R)-6-benzyl-18-(4-((3,5-diethyl-4-nitro-1H-pyrazol-1-yl)methyl)benzyl)-3,9,15,21-tetraisobutyl-4,10,12,16,22,24-hexamethyl-1,7,13,19-tetraoxa-4,10,16,22-tetraazacyclotetracosan-2,5,8,11,14,17,20,23-octaone] | 0.01 to 0.1 µM
8 | CC(C)C[C@H]1C(=O)O[C@H](Cc2ccc(Cn3ccc(C(C)C)n3)cc2)C(=O)N(C)[C@@H](CC(C)C)C(=O)O[C@H](C)C(=O)N(C)[C@@H](CC(C)C)C(=O)O[C@H](Cc2ccccc2)C(=O)N(C)[C@@H](CC(C)C)C(=O)O[C@H](C)C(=O)N1C [Example 2-83, (3S,6R,9S,12R,15S,18R,21S,24R)-6-benzyl-3,9,15,21-tetraisobutyl-18-(4-((3-isopropyl-1H-pyrazol-1-yl)methyl)benzyl)-4,10,12,16,22,24-hexamethyl-1,7,13,19-tetraoxa-4,10,16,22-tetraazacyclotetracosan-2,5,8,11,14,17,20,23-octaone] | 0.01 to 0.1 µM
9 | CC(C)C[C@H]1C(=O)O[C@H](Cc2ccc(Cn3cc(-c4cn(C)nn4)cn3)cc2)C(=O)N(C)[C@@H](CC(C)C)C(=O)O[C@H](C)C(=O)N(C)[C@@H](CC(C)C)C(=O)O[C@H](Cc2ccccc2)C(=O)N(C)[C@@H](CC(C)C)C(=O)O[C@H](C)C(=O)N1C [Example 2-84, (3S,6R,9S,12R,15S,18R,21S,24R)-6-benzyl-3,9,15,21-tetraisobutyl-4,10,12,16,22,24-hexamethyl-18-(4-((4-(1-methyl-1H-1,2,3-triazol-4-yl)-1H-pyrazol-1-yl)methyl)benzyl)-1,7,13,19-tetraoxa-4,10,16,22-tetraazacyclotetracosan-2,5,8,11,14,17,20,23-octaone] | 0.01 to 0.1 µM
10 | CC(C)C[C@H]1C(=O)O[C@H](Cc2ccc(Cn3nc(C4CC4)c(N)c3C3CC3)cc2)C(=O)N(C)[C@@H](CC(C)C)C(=O)O[C@H](C)C(=O)N(C)[C@@H](CC(C)C)C(=O)O[C@H](Cc2ccccc2)C(=O)N(C)[C@@H](CC(C)C)C(=O)O[C@H](C)C(=O)N1C [Example 2-85, (3S,6R,9S,12R,15S,18R,21S,24R)-6-(4-((4-amino-3,5-dicyclopropyl-1H-pyrazol-1-yl)methyl)benzyl)-18-benzyl-3,9,15,21-tetraisobutyl-4,10,12,16,22,24-hexamethyl-1,7,13,19-tetraoxa-4,10,16,22-tetraazacyclotetracosan-2,5,8,11,14,17,20,23-octaone] | 0.01 to 0.1 µM
11 | CCc1nn(Cc2ccc(C[C@H]3OC(=O)[C@H](CC(C)C)N(C)C(=O)[C@@H](C)OC(=O)[C@H](CC(C)C)N(C)C(=O)[C@@H](Cc4ccccc4)OC(=O)[C@H](CC(C)C)N(C)C(=O)[C@@H](C)OC(=O)[C@H](CC(C)C)N(C)C3=O)cc2)c(CC)c1N [Example 2-86, (3S,6R,9S,12R,15S,18R,21S,24R)-6-(4-((4-amino-3,5-diethyl-1H-pyrazol-1-yl)methyl)benzyl)-18-benzyl-3,9,15,21-tetraisobutyl-4,10,12,16,22,24-hexamethyl-1,7,13,19-tetraoxa-4,10,16,22-tetraazacyclotetracosan-2,5,8,11,14,17,20,23-octaone] | 0.01 to 0.1 µM
12 | CC(C)C[C@H]1C(=O)O[C@H](Cc2ccc(Cn3ccc(C4CCCC4)n3)cc2)C(=O)N(C)[C@@H](CC(C)C)C(=O)O[C@H](C)C(=O)N(C)[C@@H](CC(C)C)C(=O)O[C@H](Cc2ccccc2)C(=O)N(C)[C@@H](CC(C)C)C(=O)O[C@H](C)C(=O)N1C [Example 2-88, (3S,6R,9S,12R,15S,18R,21S,24R)-6-benzyl-18-(4-((3-cyclopentyl-1H-pyrazol-1-yl)methyl)benzyl)-3,9,15,21-tetraisobutyl-4,10,12,16,22,24-hexamethyl-1,7,13,19-tetraoxa-4,10,16,22-tetraazacyclotetracosan-2,5,8,11,14,17,20,23-octaone] | 0.01 to 0.1 µM
13 | CC(C)C[C@H]1C(=O)O[C@H](Cc2cccc(Cn3cccn3)c2)C(=O)N(C)[C@@H](CC(C)C)C(=O)O[C@H](C)C(=O)N(C)[C@@H](CC(C)C)C(=O)O[C@H](Cc2cccc(Cn3cccn3)c2)C(=O)N(C)[C@@H](CC(C)C)C(=O)O[C@H](C)C(=O)N1C [Example 4-1, (3S,6R,9S,12R,15S,18R,21S,24R)-6,18-bis(3-((1H-pyrazol-1-yl)methyl)benzyl)-3,9,15,21-tetraisobutyl-4,10,12,16,22,24-hexamethyl-1,7,13,19-tetraoxa-4,10,16,22-tetraazacyclotetracosan-2,5,8,11,14,17,20,23-octaone] | 0.001 to 0.01 µM
14 | COc1cnn(Cc2cccc(C[C@H]3OC(=O)[C@H](CC(C)C)N(C)C(=O)[C@@H](C)OC(=O)[C@H](CC(C)C)N(C)C(=O)[C@@H](Cc4cccc(Cn5cc(OC)cn5)c4)OC(=O)[C@H](CC(C)C)N(C)C(=O)[C@@H](C)OC(=O)[C@H](CC(C)C)N(C)C3=O)c2)c1 [Example 4-9, (3S,6R,9S,12R,15S,18R,21S,24R)-3,9,15,21-tetraisobutyl-6,18-bis(3-((4-methoxy-1H-pyrazol-1-yl)methyl)benzyl)-4,10,12,16,22,24-hexamethyl-1,7,13,19-tetraoxa-4,10,16,22-tetraazacyclotetracosan-2,5,8,11,14,17,20,23-octaone] | 0.01 to 0.1 µM
